Consider 20 compounds from patent US10160755B2 (Plexxikon Inc., priority 2015, dated 2018).

In one test the target is c-Kit (Homo sapiens, UniProt P10721). In words: c-Kit biochemical assay (per US 2007/0032519). An outline of the steps: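 Biochemical kinase inhibition run per US 2007/0032519; values reported as binned IC50 ranges (0.0001–1 μM, 1–10 μM, 10–200 μM).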
Another test deals with T1, FLT3-ITD (Homo sapiens, UniProt P36888).
T1 construct: FLT3-ITD; Invitrogen #PV6190
T1 sequence (P36888 1-993): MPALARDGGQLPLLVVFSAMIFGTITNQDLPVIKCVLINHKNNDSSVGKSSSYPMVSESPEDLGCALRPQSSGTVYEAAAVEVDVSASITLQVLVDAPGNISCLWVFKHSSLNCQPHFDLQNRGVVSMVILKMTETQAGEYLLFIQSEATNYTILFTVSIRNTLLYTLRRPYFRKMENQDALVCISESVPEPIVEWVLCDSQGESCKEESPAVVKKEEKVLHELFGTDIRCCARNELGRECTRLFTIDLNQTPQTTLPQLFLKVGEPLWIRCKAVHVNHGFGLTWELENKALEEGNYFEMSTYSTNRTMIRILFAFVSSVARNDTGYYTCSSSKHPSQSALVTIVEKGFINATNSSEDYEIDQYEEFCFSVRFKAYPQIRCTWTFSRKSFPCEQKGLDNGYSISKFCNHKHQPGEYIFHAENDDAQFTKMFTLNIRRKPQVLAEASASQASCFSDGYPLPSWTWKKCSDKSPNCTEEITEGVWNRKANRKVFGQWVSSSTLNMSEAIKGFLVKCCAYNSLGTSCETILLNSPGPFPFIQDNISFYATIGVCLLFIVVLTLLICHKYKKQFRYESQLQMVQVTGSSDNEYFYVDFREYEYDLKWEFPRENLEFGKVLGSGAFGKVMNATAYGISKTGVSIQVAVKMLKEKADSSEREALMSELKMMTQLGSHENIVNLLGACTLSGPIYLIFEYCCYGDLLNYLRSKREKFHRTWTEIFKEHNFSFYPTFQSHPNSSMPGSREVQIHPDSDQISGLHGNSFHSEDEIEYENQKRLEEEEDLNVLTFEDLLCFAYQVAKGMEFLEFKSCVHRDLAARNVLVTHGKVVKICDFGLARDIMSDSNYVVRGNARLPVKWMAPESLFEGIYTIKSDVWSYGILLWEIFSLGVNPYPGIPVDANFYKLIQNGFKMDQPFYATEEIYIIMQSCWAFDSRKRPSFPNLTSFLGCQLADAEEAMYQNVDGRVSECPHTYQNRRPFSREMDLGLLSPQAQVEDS
The test is described as follows: FLT3-ITD biochemical kinase assay (AlphaScreen). In a few lines:
(§1)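 AlphaScreen read-out of tyrosine phosphorylation of a 30 nM biotinylated poly(Glu4-Tyr) substrate, captured on streptavidin donor and PY20 acceptor beads at room temperature. ATP for IC50 work was 100 μM with FLT3-ITD and 10 μM with FLT3-D835Y; reduced 580 nm proximity signal reflects kinase inhibition.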

A further test deals with T2, FLT3-D835Y (Homo sapiens, UniProt P36888, D835Y).
T2 construct: purchased Invitrogen PV3967
T2 sequence (P36888 27-993 D835Y): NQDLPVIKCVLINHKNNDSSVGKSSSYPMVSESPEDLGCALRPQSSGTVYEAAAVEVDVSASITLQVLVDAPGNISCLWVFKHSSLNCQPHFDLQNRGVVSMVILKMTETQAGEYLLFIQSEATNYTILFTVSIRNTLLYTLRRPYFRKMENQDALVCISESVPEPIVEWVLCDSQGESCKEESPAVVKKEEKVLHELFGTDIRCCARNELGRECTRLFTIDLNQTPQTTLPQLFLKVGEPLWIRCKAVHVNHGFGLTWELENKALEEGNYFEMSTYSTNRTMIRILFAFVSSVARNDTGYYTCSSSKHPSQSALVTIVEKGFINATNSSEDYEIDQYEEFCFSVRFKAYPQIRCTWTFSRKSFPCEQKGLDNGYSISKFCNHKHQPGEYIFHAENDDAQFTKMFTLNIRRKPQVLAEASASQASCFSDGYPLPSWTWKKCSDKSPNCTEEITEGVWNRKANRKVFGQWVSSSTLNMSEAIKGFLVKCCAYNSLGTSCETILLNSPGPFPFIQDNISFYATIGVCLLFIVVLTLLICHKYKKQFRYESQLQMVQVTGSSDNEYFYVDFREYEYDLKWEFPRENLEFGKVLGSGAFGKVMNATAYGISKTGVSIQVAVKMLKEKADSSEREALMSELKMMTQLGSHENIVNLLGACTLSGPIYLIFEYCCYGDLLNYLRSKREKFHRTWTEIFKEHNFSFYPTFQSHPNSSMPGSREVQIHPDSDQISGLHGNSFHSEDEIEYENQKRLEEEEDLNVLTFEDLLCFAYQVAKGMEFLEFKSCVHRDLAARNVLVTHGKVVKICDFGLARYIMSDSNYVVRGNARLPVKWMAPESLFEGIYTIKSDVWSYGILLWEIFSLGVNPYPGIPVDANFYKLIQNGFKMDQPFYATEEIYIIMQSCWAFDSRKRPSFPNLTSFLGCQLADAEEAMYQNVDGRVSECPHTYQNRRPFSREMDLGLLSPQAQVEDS
In words: FLT3-D835Y biochemical kinase assay (AlphaScreen). In a few lines: as §1
(Bead proximity is the source of the signal in Alpha formats.)

Each structure is given as a SMILES string.

Sequence of c-Kit (P10721 26-976): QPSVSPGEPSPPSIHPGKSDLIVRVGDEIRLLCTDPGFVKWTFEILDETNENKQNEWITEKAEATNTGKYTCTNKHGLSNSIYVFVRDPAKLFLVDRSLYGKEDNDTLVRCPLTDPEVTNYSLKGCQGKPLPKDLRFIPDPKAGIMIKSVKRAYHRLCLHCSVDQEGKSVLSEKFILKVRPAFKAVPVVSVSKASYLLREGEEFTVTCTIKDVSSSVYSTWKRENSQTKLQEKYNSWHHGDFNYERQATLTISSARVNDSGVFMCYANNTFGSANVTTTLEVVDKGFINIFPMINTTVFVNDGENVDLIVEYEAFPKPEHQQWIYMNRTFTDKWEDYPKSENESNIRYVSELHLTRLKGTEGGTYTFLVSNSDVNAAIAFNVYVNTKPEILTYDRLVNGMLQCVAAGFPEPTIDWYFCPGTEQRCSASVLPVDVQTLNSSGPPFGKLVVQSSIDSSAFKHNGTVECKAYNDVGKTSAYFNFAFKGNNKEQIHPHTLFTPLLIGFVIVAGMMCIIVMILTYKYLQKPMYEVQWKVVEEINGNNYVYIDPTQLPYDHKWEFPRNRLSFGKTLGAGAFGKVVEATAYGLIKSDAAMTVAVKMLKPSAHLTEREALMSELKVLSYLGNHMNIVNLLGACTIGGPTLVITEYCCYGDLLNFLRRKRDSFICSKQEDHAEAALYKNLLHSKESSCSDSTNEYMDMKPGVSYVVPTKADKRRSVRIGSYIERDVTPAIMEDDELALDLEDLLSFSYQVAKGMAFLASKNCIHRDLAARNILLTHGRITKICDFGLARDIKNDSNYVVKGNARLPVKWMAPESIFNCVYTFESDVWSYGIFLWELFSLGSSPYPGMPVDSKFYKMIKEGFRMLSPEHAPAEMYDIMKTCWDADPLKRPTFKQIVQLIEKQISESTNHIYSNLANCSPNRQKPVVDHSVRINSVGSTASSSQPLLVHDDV

A word on the IC50: it is the concentration needed to halve the response being measured. A lower IC50 goes with inhibition by little substance. As for `Cn1cnc2ccc(-c3c[nH]c4ncc(C5=CCN(C(=O)C6CC6)C5)nc34)cc21` [P-082, cyclopropyl-[3-[7-(3-methylbenzimidazol-5-yl)-5H-pyrrolo[2,3-b]pyrazin-2-yl]-2,5-dihydropyrrol-1-yl]methanone], the half-inhibitory concentration (IC50) against c-Kit is 1 to 10 µM; on FLT3-ITD, 0.0001 to 1 µM; against FLT3-D835Y, 0.0001 to 1 µM.
In the case of `Cn1cnc2ccc(-c3c[nH]c4ncc(-c5cccc(C#N)c5)cc34)cc21` [P-089, 3-[3-(3-methylbenzimidazol-5-yl)-1H-pyrrolo[2,3-b]pyridin-5-yl]benzonitrile], the figures for the IC50 against c-Kit, against FLT3-ITD and against FLT3-D835Y were 10 to 200 µM, 0.0001 to 1 µM and 0.0001 to 1 µM, respectively.
For the compound `CS(=O)(=O)Nc1cccc(-c2cnc3[nH]cc(-c4ccc5ncn(C6CCCC6)c5c4)c3c2)c1` [P-066, N-[3-[3-(3-cyclopentylbenzimidazol-5-yl)-1H-pyrrolo[2,3-b]pyridin-5-yl]phenyl]methanesulfonamide], the IC50 against c-Kit, on FLT3-ITD and on FLT3-D835Y was 0.0001 to 1 µM each time.
Turning to `CC(C)(C)n1cnc2ccc(-c3c[nH]c4ncc(-c5ccnc(F)c5)nc34)cc21` [P-384, 7-(3-tert-butylbenzimidazol-5-yl)-2-(2-fluoro-4-pyridyl)-5H-pyrrolo[2,3-b]pyrazine], the IC50 at c-Kit, against FLT3-ITD and on FLT3-D835Y was 0.0001 to 1 µM each time.
Regarding `COc1cc(-c2cnc3[nH]cc(-c4ccc5ncn(C)c5c4)c3c2)cc(OC)n1` [P-123, 5-(2,6-dimethoxy-4-pyridyl)-3-(3-methylbenzimidazol-5-yl)-1H-pyrrolo[2,3-b]pyridine], the IC50 at c-Kit is 10 to 200 µM; against FLT3-ITD it was 0.0001 to 1 µM; on FLT3-D835Y, 0.0001 to 1 µM.
As to `O=C(C1CC1)N1CC=C(c2cnc3[nH]cc(-c4ccc5ncn(CC(F)(F)F)c5c4)c3n2)C1` [P-125, cyclopropyl-[3-[7-[3-(2,2,2-trifluoroethyl)benzimidazol-5-yl]-5H-pyrrolo[2,3-b]pyrazin-2-yl]-2,5-dihydropyrrol-1-yl]methanone], the IC50 against c-Kit was 1 to 10 µM; at FLT3-ITD, 0.0001 to 1 µM; at FLT3-D835Y, 0.0001 to 1 µM.
For `Cc1nc2cc(-c3c[nH]c4ncccc34)ccc2[nH]1` [P-012, 2-methyl-5-(1H-pyrrolo[2,3-b]pyridin-3-yl)-1H-benzimidazole], the figures for the half-maximal inhibitory concentration (IC50) on c-Kit, against FLT3-ITD and at FLT3-D835Y were 10 to 200 µM, 1 to 10 µM and 1 to 10 µM, respectively.
Regarding `Nc1nc2cc(-c3c[nH]c4ncccc34)ccc2[nH]1` [P-010, 5-(1H-pyrrolo[2,3-b]pyridin-3-yl)-1H-benzimidazol-2-amine], the half-maximal inhibitory concentration (IC50) on c-Kit was in the range of 10 to 200 µM; at FLT3-ITD it was 1 to 10 µM; against FLT3-D835Y, 1 to 10 µM.
As for `CS(=O)(=O)Nc1cccc(-c2cnc3[nH]cc(-c4ccc5[nH]cnc5c4)c3n2)c1` [P-011, N-[3-[7-(1H-benzimidazol-5-yl)-5H-pyrrolo[2,3-b]pyrazin-2-yl]phenyl]methanesulfonamide], the IC50 against c-Kit was 1 to 10 µM; against FLT3-ITD, 0.0001 to 1 µM; at FLT3-D835Y, 0.0001 to 1 µM.
For the compound `Cn1cnc2ccc(-c3c[nH]c4ncc(-c5cccc(N6CCOCC6)c5)cc34)cc21` [P-095, 4-[3-[3-(3-methylbenzimidazol-5-yl)-1H-pyrrolo[2,3-b]pyridin-5-yl]phenyl]morpholine], the values for the IC50 against c-Kit, against FLT3-ITD and on FLT3-D835Y were 1 to 10 µM, 0.0001 to 1 µM and 0.0001 to 1 µM, respectively.
Consider `COc1cccc(-c2cnc3[nH]cc(-c4ccc5ncn(C)c5c4)c3c2)c1` [P-088, 5-(3-methoxyphenyl)-3-(3-methylbenzimidazol-5-yl)-1H-pyrrolo[2,3-b]pyridine], for which the IC50 is 1 to 10 µM at c-Kit, 0.0001 to 1 µM against FLT3-ITD and 0.0001 to 1 µM against FLT3-D835Y.
Consider `CC(C)S(=O)(=O)Nc1cccc(-c2cnc3[nH]cc(-c4ccc5ncn(C)c5c4)c3c2)c1` [P-096, N-[3-[3-(3-methylbenzimidazol-5-yl)-1H-pyrrolo[2,3-b]pyridin-5-yl]phenyl]propane-2-sulfonamide], for which the 50% inhibitory concentration (IC50) lay within 1 to 10 µM against c-Kit, 0.0001 to 1 µM at FLT3-ITD and 0.0001 to 1 µM against FLT3-D835Y.
As for `Fc1cnc2[nH]cc(-c3ccc4nc[nH]c4c3)c2c1` [P-022, 3-(3H-benzimidazol-5-yl)-5-fluoro-1H-pyrrolo[2,3-b]pyridine], the half-inhibitory concentration (IC50) lay in the range of 10 to 200 µM against c-Kit, 1 to 10 µM against FLT3-ITD and 1 to 10 µM against FLT3-D835Y.
As for `CN(C)c1ccc(-c2cnc3[nH]cc(-c4ccc5ncn(C(C)(C)C)c5c4)c3n2)cn1` [P-379, 5-[7-(3-tert-butylbenzimidazol-5-yl)-5H-pyrrolo[2,3-b]pyrazin-2-yl]-N,N-dimethyl-pyridin-2-amine], the IC50 against c-Kit, against FLT3-ITD and against FLT3-D835Y was 0.0001 to 1 µM throughout.
With `CNS(=O)(=O)c1cccc(-c2cnc3[nH]cc(-c4ccc5ncn(C)c5c4)c3c2)c1` [P-046, N-methyl-3-[3-(3-methylbenzimidazol-5-yl)-1H-pyrrolo[2,3-b]pyridin-5-yl]benzenesulfonamide], the IC50 at c-Kit lay in the range of 10 to 200 µM; on FLT3-ITD, 0.0001 to 1 µM; on FLT3-D835Y it was 0.0001 to 1 µM.
As for `CCCn1cnc2cc(-c3c[nH]c4ncc(OC)cc34)ccc21` [P-056, 5-methoxy-3-(1-propylbenzimidazol-5-yl)-1H-pyrrolo[2,3-b]pyridine], the IC50 against c-Kit was in the range of 10 to 200 µM; on FLT3-ITD it was 0.0001 to 1 µM; against FLT3-D835Y, 0.0001 to 1 µM.
On to `Cn1cnc2ccc(-c3c[nH]c4ncccc34)cc21` [P-009, 1-methyl-6-(1H-pyrrolo[2,3-b]pyridin-3-yl)benzimidazole], for which the values for the IC50 at c-Kit, against FLT3-ITD and on FLT3-D835Y were 1 to 10 µM, 0.0001 to 1 µM and 0.0001 to 1 µM, respectively.
Regarding `Cn1cnc2ccc(-c3c[nH]c4ncc(-c5ccc(S(=O)(=O)N6CCCC6)cc5)cc34)cc21` [P-091, 1-methyl-6-[5-(4-pyrrolidin-1-ylsulfonylphenyl)-1H-pyrrolo[2,3-b]pyridin-3-yl]benzimidazole], the IC50 against c-Kit, at FLT3-ITD and on FLT3-D835Y was 0.0001 to 1 µM each time.
Regarding `CNS(=O)(=O)c1cccc(-c2cnc3[nH]cc(-c4ccc5ncn(C)c5c4)c3n2)c1` [P-057, N-methyl-3-[7-(3-methylbenzimidazol-5-yl)-5H-pyrrolo[2,3-b]pyrazin-2-yl]benzenesulfonamide], the IC50 on c-Kit lay in the range of 1 to 10 µM; against FLT3-ITD it was 0.0001 to 1 µM; on FLT3-D835Y, 0.0001 to 1 µM.
Regarding `O=C(C1CC1)N1CCC=C(c2cnc3[nH]cc(-c4ccc5[nH]cnc5c4)c3c2)C1` [P-033, [5-[3-(1H-benzimidazol-5-yl)-1H-pyrrolo[2,3-b]pyridin-5-yl]-3,6-dihydro-2H-pyridin-1-yl]-cyclopropyl-methanone], the IC50 at c-Kit lay in the range of 10 to 200 µM; on FLT3-ITD, 0.0001 to 1 µM; at FLT3-D835Y, 1 to 10 µM.
